Results: ChEMBL document CHEMBL1201862, “PubChem BioAssay data set” (2004)
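Method: 48-hour compound exposure of cells in 96-well plates, five concentrations, linear interpolation of endpoints. GI50 is the concentration that inhibits growth by half.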 Active and inactive are the calls of the source. No stated cut-off is given here; in the data, active = GI50 up to about 1.1 µM and inactive = higher.

How the values were obtained:
Experiment in all cases: growth of human tumour cells (NCI), 48 h
PC-3 = test system: PC-3
OVCAR-3 = test system: OVCAR-3
T47D = test system: T47D
MDA-MB-231 = test system: MDA-MB-231
MDA-N = test system: MDA-N
MDA-MB-435 = test system: MDA-MB-435
HCT-15 = test system: HCT-15
A549 = test system: A549
SF-268 = test system: SF-268
SF-295 = test system: SF-295
IGROV-1 = test system: IGROV-1
NCI/ADR-RES = test system: NCI/ADR-RES
786-0 = test system: 786-0
OVCAR-8 = test system: OVCAR-8
KM12 = test system: KM12
TK-10 = test system: TK-10
SK-MEL-28 = test system: SK-MEL-28
SW-620 = test system: SW-620
HCC 2998 = test system: HCC 2998
RPMI-8226 = test system: RPMI-8226
CAKI-1 = test system: CAKI-1
NCI-H460 = test system: NCI-H460
SR = test system: SR
RXF 393 = test system: RXF 393
MOLT-4 = test system: MOLT-4
SF-539 = test system: SF-539
UACC-257 = test system: UACC-257
SK-MEL-2 = test system: SK-MEL-2
SNB-19 = test system: SNB-19
A498 = test system: A498
HCT-116 = test system: HCT-116
SK-OV-3 = test system: SK-OV-3
NCI-H522 = test system: NCI-H522
MCF7 = test system: MCF7
COLO 205 = test system: COLO 205
OVCAR-4 = test system: OVCAR-4
Hs-578T = test system: Hs-578T
HT-29 = test system: HT-29
UACC-62 = test system: UACC-62
CCRF-CEM = test system: CCRF-CEM
HL-60 = test system: HL-60
ACHN = test system: ACHN
NCI-H23 = test system: NCI-H23
Malme-3M = test system: Malme-3M
K562 = test system: K562
HOP-62 = test system: HOP-62
SN12C = test system: SN12C
M14 = test system: M14
SK-MEL-5 = test system: SK-MEL-5
U-251 = test system: U-251
LOX IMVI = test system: LOX IMVI
OVCAR-5 = test system: OVCAR-5
UO-31 = test system: UO-31
NCI-H226 = test system: NCI-H226
DU-145 = test system: DU-145
EKVX = test system: EKVX
HOP-92 = test system: HOP-92
SNB-75 = test system: SNB-75

For CC(=O)NC(Cc1ccc(OP(=O)(OCc2ccc([N+](=O)[O-])o2)N(C)CCCCCl)cc1)C(=O)NC(C)c1ccc(OCC2CCCCC2)c(C(N)=O)c1 (configuration not stated), the GI50 (PC-3) was 2.79 µM (inactive), the GI50 (OVCAR-3) was 2.27 µM (inactive) and the GI50 (T47D) was 2.76 µM (inactive). The GI50 (MDA-MB-231) was 2.05 µM (inactive), the GI50 (MDA-N) was 2.24 µM (inactive) and the GI50 (MDA-MB-435) was 2.31 µM (inactive). The GI50 (HCT-15) was 20.4 µM, the GI50 (A549) was 4.12 µM (inactive) and the GI50 (SF-268) was 2.24 µM (inactive). The GI50 (SF-295) was 4.74 µM (inactive), the GI50 (IGROV-1) was 2.7 µM (inactive) and the GI50 (NCI/ADR-RES) was 31.2 µM (inactive). The GI50 (786-0) was 3.37 µM (inactive), the GI50 (OVCAR-8) was 7.48 µM (inactive) and the GI50 (KM12) was 2.68 µM (inactive). For the same molecule, the GI50 (TK-10) was 11.4 µM (inactive), the GI50 (SK-MEL-28) was 2.12 µM (inactive) and the GI50 (SW-620) was 4.11 µM (inactive). The GI50 (HCC 2998) was 1.82 µM (inactive), the GI50 (RPMI-8226) was 1.72 µM (inactive) and the GI50 (CAKI-1) was 21.3 µM (inactive). For the same molecule, the GI50 (NCI-H460) was 3.44 µM (inactive), the GI50 (SR) was 2.21 µM (inactive) and the GI50 (RXF 393) was 2.02 µM (inactive). The GI50 (MOLT-4) was 3.53 µM (inactive), the GI50 (SF-539) was 2.08 µM (inactive) and the GI50 (UACC-257) was 1.93 µM (inactive). The GI50 (SK-MEL-2) was 3.08 µM (inactive), the GI50 (SNB-19) was 3.9 µM (inactive) and the GI50 (A498) was 18.9 µM (inactive). The GI50 (HCT-116) was 2.36 µM (inactive), the GI50 (SK-OV-3) was 11.5 µM (inactive) and the GI50 (NCI-H522) was 3.73 µM (inactive). For the same molecule, the GI50 (MCF7) was 2.25 µM (inactive), the GI50 (COLO 205) was 1.87 µM (inactive) and the GI50 (OVCAR-4) was 3.66 µM (inactive). For the same molecule, the GI50 (Hs-578T) was 2.14 µM (inactive), the GI50 (HT-29) was 2.25 µM (inactive) and the GI50 (UACC-62) was 2.31 µM (inactive). The GI50 (CCRF-CEM) was 1.33 µM (inactive), the GI50 (HL-60) was 2.79 µM (inactive) and the GI50 (ACHN) was 8.15 µM (inactive). For the same molecule, the GI50 (NCI-H23) was 2.21 µM (inactive), the GI50 (Malme-3M) was 1.88 µM (inactive) and the GI50 (K562) was 3.91 µM (inactive). For the same molecule, the GI50 (HOP-62) was 9.66 µM (inactive), the GI50 (SN12C) was 2.34 µM (inactive) and the GI50 (M14) was 2.22 µM (inactive). The GI50 (SK-MEL-5) was 1.61 µM (inactive), the GI50 (U-251) was 2.48 µM (inactive) and the GI50 (LOX IMVI) was 1.97 µM (inactive). For the same molecule, the GI50 (OVCAR-5) was 7.35 µM (inactive), the GI50 (UO-31) was 17.3 µM (inactive) and the GI50 (NCI-H226) was 5.94 µM (inactive). The GI50 (DU-145) was 3.74 µM (inactive).
In the case of COc1ccc(/C=C2\N/C(=N/N)N=C2Cl)cc1, the GI50 (PC-3) is reported as > 100 µM (inactive), the GI50 (EKVX) is reported as > 100 µM (inactive) and the GI50 (OVCAR-3) is reported as > 100 µM (inactive). The GI50 (T47D) was > 100 µM (inactive), the GI50 (MDA-MB-231) was > 100 µM (inactive) and the GI50 (MDA-N) was > 100 µM (inactive). For the same molecule, the GI50 (MDA-MB-435) was > 100 µM (inactive), the GI50 (HCT-15) was greater than 100 µM and the GI50 (A549) was > 100 µM (inactive). The GI50 (SF-268) was > 100 µM (inactive), the GI50 (SF-295) was > 100 µM (inactive) and the GI50 (IGROV-1) was > 100 µM (inactive). The GI50 (NCI/ADR-RES) was > 100 µM (inactive), the GI50 (HOP-92) was > 100 µM (inactive) and the GI50 (786-0) was > 100 µM (inactive). For the same molecule, the GI50 (OVCAR-8) was > 100 µM (inactive), the GI50 (KM12) was > 100 µM (inactive) and the GI50 (TK-10) was > 100 µM (inactive). The GI50 (SK-MEL-28) was > 100 µM (inactive), the GI50 (SNB-75) was > 100 µM (inactive) and the GI50 (SW-620) was > 100 µM (inactive). The GI50 (HCC 2998) was > 100 µM (inactive), the GI50 (RPMI-8226) was > 100 µM (inactive) and the GI50 (CAKI-1) was > 100 µM (inactive). For the same molecule, the GI50 (SR) was > 100 µM (inactive), the GI50 (RXF 393) was > 100 µM (inactive) and the GI50 (MOLT-4) was > 100 µM (inactive). For the same molecule, the GI50 (SF-539) was > 100 µM (inactive), the GI50 (UACC-257) was > 100 µM (inactive) and the GI50 (SK-MEL-2) was > 100 µM (inactive). For the same molecule, the GI50 (SNB-19) was > 100 µM (inactive), the GI50 (A498) was > 100 µM (inactive) and the GI50 (HCT-116) was > 100 µM (inactive). The GI50 (SK-OV-3) was > 100 µM (inactive), the GI50 (NCI-H522) was > 100 µM (inactive) and the GI50 (MCF7) was > 100 µM (inactive). The GI50 (COLO 205) was > 100 µM (inactive), the GI50 (OVCAR-4) was > 100 µM (inactive) and the GI50 (Hs-578T) was > 100 µM (inactive). The GI50 (HT-29) was > 100 µM (inactive), the GI50 (CCRF-CEM) was > 100 µM (inactive) and the GI50 (HL-60) was > 100 µM (inactive). The GI50 (ACHN) was > 100 µM (inactive), the GI50 (NCI-H23) was > 100 µM (inactive) and the GI50 (Malme-3M) was > 100 µM (inactive). The GI50 (K562) was > 100 µM (inactive), the GI50 (HOP-62) was > 100 µM (inactive) and the GI50 (SN12C) was > 100 µM (inactive). For the same molecule, the GI50 (M14) was > 100 µM (inactive), the GI50 (SK-MEL-5) was > 100 µM (inactive) and the GI50 (U-251) was > 100 µM (inactive). For the same molecule, the GI50 (LOX IMVI) was > 100 µM (inactive), the GI50 (OVCAR-5) was > 100 µM (inactive) and the GI50 (UO-31) was > 100 µM (inactive). For the same molecule, the GI50 (NCI-H226) was > 100 µM (inactive) and the GI50 (DU-145) was > 100 µM (inactive).
For N#CC1=C(N)N2C(=O)/C(=C/c3ccccc3O)N=C2S1, the GI50 (PC-3) was > 100 µM (inactive), the GI50 (EKVX) was 51.9 µM (inactive) and the GI50 (OVCAR-3) was 66.2 µM (inactive). For the same molecule, the GI50 (T47D) was > 100 µM (inactive), the GI50 (MDA-MB-231) was > 100 µM (inactive) and the GI50 (MDA-N) was 86.3 µM (inactive). For the same molecule, the GI50 (MDA-MB-435) was > 100 µM (inactive), the GI50 (HCT-15) was 33.5 µM and the GI50 (A549) was > 100 µM (inactive). For the same molecule, the GI50 (SF-268) was 41.1 µM (inactive), the GI50 (SF-295) was > 100 µM (inactive) and the GI50 (IGROV-1) was 29.8 µM (inactive). The GI50 (NCI/ADR-RES) was > 100 µM (inactive), the GI50 (HOP-92) was > 100 µM (inactive) and the GI50 (786-0) was > 100 µM (inactive). The GI50 (OVCAR-8) was > 100 µM (inactive), the GI50 (KM12) was > 100 µM (inactive) and the GI50 (TK-10) was > 100 µM (inactive). For the same molecule, the GI50 (SK-MEL-28) was > 100 µM (inactive), the GI50 (SNB-75) was 32.9 µM (inactive) and the GI50 (SW-620) was > 100 µM (inactive). The GI50 (HCC 2998) was 92.9 µM (inactive), the GI50 (RPMI-8226) was 30.6 µM (inactive) and the GI50 (CAKI-1) was 51.5 µM (inactive). For the same molecule, the GI50 (SR) was 23.6 µM (inactive), the GI50 (RXF 393) was 93.3 µM (inactive) and the GI50 (MOLT-4) was 18.5 µM (inactive). For the same molecule, the GI50 (SF-539) was 28.8 µM (inactive), the GI50 (UACC-257) was > 100 µM (inactive) and the GI50 (SK-MEL-2) was > 100 µM (inactive). For the same molecule, the GI50 (SNB-19) was > 100 µM (inactive), the GI50 (A498) was > 100 µM (inactive) and the GI50 (HCT-116) was 68.1 µM (inactive). The GI50 (SK-OV-3) was > 100 µM (inactive), the GI50 (NCI-H522) was 47.8 µM (inactive) and the GI50 (MCF7) was 48.1 µM (inactive). The GI50 (COLO 205) was > 100 µM (inactive), the GI50 (OVCAR-4) was 44.5 µM (inactive) and the GI50 (Hs-578T) was 31.3 µM (inactive). The GI50 (HT-29) was 37.7 µM (inactive), the GI50 (CCRF-CEM) was 26.4 µM (inactive) and the GI50 (HL-60) was 20.8 µM (inactive). The GI50 (ACHN) was > 100 µM (inactive), the GI50 (NCI-H23) was 95.3 µM (inactive) and the GI50 (Malme-3M) was > 100 µM (inactive). The GI50 (K562) was 26.1 µM (inactive), the GI50 (HOP-62) was > 100 µM (inactive) and the GI50 (SN12C) was > 100 µM (inactive). For the same molecule, the GI50 (M14) was 49.9 µM (inactive), the GI50 (SK-MEL-5) was 80 µM (inactive) and the GI50 (U-251) was > 100 µM (inactive). The GI50 (LOX IMVI) was 53.2 µM (inactive), the GI50 (OVCAR-5) was 98.9 µM (inactive) and the GI50 (UO-31) was 94.6 µM (inactive). For the same molecule, the GI50 (NCI-H226) was > 100 µM (inactive) and the GI50 (DU-145) was > 100 µM (inactive).
